Reference: publication PMC6941357, “An in vitro toolbox to accelerate anti-malarial drug discovery and development” (Malaria Journal, 2020)
Several values for one entry are separate records, joined by “and”; a condition that tells them apart may be missing. Equal values may be shown once. Read-outs that look alike come from different tables or passages of the source.

Legend:
[1] = Solubility in biorelevant media; details: for solubility at 1 h / solubility: thermodynamic from solid
Outline: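 Measured at 37 °C with 600 rpm orbital shaking in pH 7.4 PBS, FaSSIF-V2, FeSSIF-V2 and FaSSGF. Sampled at 1 h (FaSSGF) or 5–6 h (other media) after double centrifugation; supernatant quantified by LC–MS against calibration standards, triplicate aliquots.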

[2] = Bidirectional permeability across Caco-2 cell monolayers; details: human
Outline: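 Transport run in both directions with either HBSS/20 mM HEPES pH 7.4 or human plasma in apical and basolateral chambers, 0.1% v/v DMSO in donor. Donor and acceptor samples quantified by LC–MS; Papp and mass balance calculated, with plasma Papp corrected for donor fraction unbound. Efflux ratio = mean B–A/A–B Papp.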

[3] = Plasma protein binding via rapid equilibrium dialysis (RED), 10% plasma; assay type: in vitro ADME, human; details: human, 10% pooled plasma (diluted 1:10), pH 7.4, RED, 10% plasma corrected for dilution; for fraction unbound at 24 h: presaturation of device and 24 h dialysis; for fraction unbound at 6 h: 6 h dialysis
Description: Pooled human plasma (n = 3–4 donors) was obtained by centrifugation of blood (collected by the Australian Red Cross Blood Service, Melbourne, Australia or the Volunteer Blood Donor Registry, Clinical Translation Centre, Walter & Eliza Hall Institute of Medical Research, Parkville, Australia), or sourcing pooled plasma directly from commercial sources (Innovative Research Inc, MI) and stored frozen at − 80 °C.
Plasma was diluted 1:10 with pH 7.4 phosphate buffer (prepared by mixing 0.1 M sodium dihydrogen phosphate and 0.1 M disodium hydrogen phosphate (both containing 0.04 M NaCl) to pH 7.4) and spiked with compound to achieve a total measured concentration of ~ 1000–3000 ng/mL. Diluted plasma was vortex mixed briefly and aliquots (n = 3–4) were transferred to RED (Thermo Fisher Scientific, Waltham, MA) units that were placed at 37 °C under ambient atmosphere on a plate shaker. […] At the end of the dialysis period, samples were removed from both the donor and dialysate chambers of the RED units. […] Fraction unbound values were calculated for each individual RED unit and the mean and SD calculated for n = 3–4 replicates.
Briefly, the RED device was exposed for two 30 min periods and one overnight period to fresh solutions of compound prepared in pH 7.4 buffer at approximately 10% of the total dialysis concentration. Following the preincubations, solutions were removed from the RED device and discarded. […] Samples were removed and analysed as described above.
For binding assessments using 10% plasma, the unbound fraction (fu) in neat plasma was calculated using the average values for Ctotal and Cunbound and Eq.

[4] = Binding to human liver microsomes via ultracentrifugation; assay type: in vitro ADME; details: human, read-out: Fraction unbound, HLM
Outline: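 Unbound fraction by ultracentrifugation: Cunbound measured in protein-free supernate, Ctotal from spiked tubes held at 37 °C, sampled at start and end to check degradation. Matrix was 0.4 mg/mL human liver microsomal protein, 0.1 M phosphate pH 7.4; matrix-matched analysis against one calibration curve.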

[5] = target: CYP2C9 (Homo sapiens, UniProt P11712); experiment: Cytochrome P450 inhibition in human liver microsomes
Outline: (§1)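 HLM + isoform-selective substrate; stop with cold MeCN (diazepam IS); metabolite quantified by LC–MS against calibrants made in quenched microsomal matrix. Readout = % inhibition of metabolite formation relative to no-inhibitor activity.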

[6] = target: CYP3A4 (Homo sapiens, UniProt P08684); experiment: as above; details: for IC50: highest concentration tested 20 µM; for inhibition at 20 µM: human; for inhibition at 20 µM / CYP3A4 (test) % inhibition at max conc / CYP3A4 (midaz) % inhibition at max conc: microsomes
Outline: as §1

[7] = target: CYP2C19 (Homo sapiens, UniProt P33261); experiment: in vitro; details: for inhibition at 20 µM: human, pH 7.4; for inhibition at 20 µM / CYP2C19 % inhibition at max conc: microsomes
Outline: as §1

[8] = FaSSGF, 37 °C, fassgf or other biorelevant
[9] = phosphate buffered saline pH 7.4, 37 °C, pH 7.4, aqueous buffer
[10] = Caco-2, A–B Papp, matrix: human plasma, corrected for fu
[11] = liver microsomes, pH 7.4, 0.4 mg/mL protein
[12] = CYP3A4 (test) IC50, human liver microsomes, CYP3A4 (test)
[13] = pH 7.4, CYP3A4 (test) % inhibition at max conc
[14] = Caco-2, pH 7.4, A–B Papp, matrix: pH 7.4 buffer
[15] = FaSSGF, FaSSIF-V2, FeSSIF-V2 and PBS pH 7.4, 37 °C, pH 7.4, aqueous buffer
[16] = CYP3A4 (midaz) IC50, human liver microsomes, CYP3A4 (midaz)

Sequence of CYP2C9 (P11712 whole entry, canonical isoform): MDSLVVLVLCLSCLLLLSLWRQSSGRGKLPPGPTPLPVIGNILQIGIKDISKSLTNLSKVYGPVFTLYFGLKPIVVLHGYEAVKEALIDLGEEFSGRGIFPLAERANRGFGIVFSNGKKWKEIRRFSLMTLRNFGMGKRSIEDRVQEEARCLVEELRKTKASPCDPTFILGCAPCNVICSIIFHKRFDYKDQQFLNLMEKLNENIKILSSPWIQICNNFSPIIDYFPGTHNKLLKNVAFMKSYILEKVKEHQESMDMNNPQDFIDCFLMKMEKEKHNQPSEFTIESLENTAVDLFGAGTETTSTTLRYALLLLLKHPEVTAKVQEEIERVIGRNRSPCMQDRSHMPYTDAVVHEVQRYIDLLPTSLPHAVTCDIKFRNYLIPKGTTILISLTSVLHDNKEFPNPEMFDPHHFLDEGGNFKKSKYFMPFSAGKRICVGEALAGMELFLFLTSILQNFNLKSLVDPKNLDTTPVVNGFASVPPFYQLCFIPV
Sequence of CYP2C19 (P33261 whole entry): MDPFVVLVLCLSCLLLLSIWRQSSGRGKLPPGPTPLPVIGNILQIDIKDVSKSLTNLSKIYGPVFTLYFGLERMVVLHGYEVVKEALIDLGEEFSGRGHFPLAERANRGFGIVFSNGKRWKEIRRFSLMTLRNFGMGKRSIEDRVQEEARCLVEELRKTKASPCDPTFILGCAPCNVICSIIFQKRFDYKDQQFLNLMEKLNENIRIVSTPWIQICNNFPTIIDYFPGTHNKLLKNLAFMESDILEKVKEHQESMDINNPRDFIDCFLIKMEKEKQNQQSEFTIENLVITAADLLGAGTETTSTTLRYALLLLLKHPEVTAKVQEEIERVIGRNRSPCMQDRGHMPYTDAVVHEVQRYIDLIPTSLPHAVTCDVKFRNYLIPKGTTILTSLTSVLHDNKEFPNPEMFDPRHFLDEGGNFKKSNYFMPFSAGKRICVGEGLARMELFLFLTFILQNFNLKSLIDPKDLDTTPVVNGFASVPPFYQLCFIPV
Sequence of CYP3A4 (P08684 whole entry): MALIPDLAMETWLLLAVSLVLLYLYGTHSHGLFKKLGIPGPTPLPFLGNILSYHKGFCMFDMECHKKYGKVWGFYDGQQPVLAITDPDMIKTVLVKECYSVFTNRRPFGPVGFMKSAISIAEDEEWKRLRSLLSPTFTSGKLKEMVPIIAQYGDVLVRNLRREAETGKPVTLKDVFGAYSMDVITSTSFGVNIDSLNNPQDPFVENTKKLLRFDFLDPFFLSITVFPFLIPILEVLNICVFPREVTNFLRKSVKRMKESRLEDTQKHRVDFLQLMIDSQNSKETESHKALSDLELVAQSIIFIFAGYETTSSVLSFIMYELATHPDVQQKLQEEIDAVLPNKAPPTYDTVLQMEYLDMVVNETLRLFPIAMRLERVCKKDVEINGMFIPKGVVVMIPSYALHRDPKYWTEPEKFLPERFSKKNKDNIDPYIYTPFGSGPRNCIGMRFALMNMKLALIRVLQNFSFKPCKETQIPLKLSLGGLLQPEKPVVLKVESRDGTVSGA

| SMILES | solubility at 1 h [1, 8] | solubility ([1]; FaSSIF-V2, 37 °C, fassif) | solubility ([1]; FeSSIF-V2, 37 °C, fessif) | solubility [1, 9] | Papp B→A ([2]; Caco-2) [×10⁻⁶ cm/s] | Papp A→B [2, 10] [×10⁻⁶ cm/s] | fraction unbound at 24 h [3] | fraction unbound at […] [4, 11] | IC50 [5] [µM] | CYP2C9 % inhibition at max conc ([5]; microsomes) | IC50 [6, 12] [µM] | inhibition at 20 µM [6, 13] [%] | Papp B→A ([2]; Caco-2, pH 7.4) [×10⁻⁶ cm/s] | Papp A→B [2, 14] [×10⁻⁶ cm/s] | solubility [1, 15] [µg/mL] | inhibition at 20 µM [7] [%] | CYP3A4 (test) % inhibition at max conc [6] | IC50 [7] [µM] | IC50 [6, 16] [µM] | CYP3A4 (midaz) % inhibition at max conc [6] | other results |
| --- | --- | --- | --- | --- | --- | --- | --- | --- | --- | --- | --- | --- | --- | --- | --- | --- | --- | --- | --- | --- | --- |
| Cc1nc(Nc2ncc(N3CCN(C)[C@H](C)C3)c(Nc3cc(C)n(C)n3)n2)cc(C2CC2)c1F [MMV253] | > 2000 µg/mL and > 4300 µM | 569 µg/mL and 1220 µM | > 2000 µg/mL and > 4300 µM | 19 µg/mL and 40.8 µM | 150 ± 23 | 150 ± 29 | 0.017 ± 0.0002 | 0.11 ± 0.017 | > 20 | nmi | > 20 | 37 |  |  |  |  |  |  |  |  | efflux ratio ([2]; Caco-2): 1 |
| C[C@H]1[C@H](N2CCS(=O)(=O)CC2)O[C@@H]2O[C@@]3(C)CC[C@H]4[C@H](C)CC[C@@H]1[C@@]24OO3 [Artemisone] | 89.1 µg/mL and 222 µM | 115 µg/mL and 286 µM | 278 µg/mL and 692 µM | 86.1 µg/mL and 214 µM |  |  |  | 0.44 ± 0.024 |  |  |  |  | 47 ± 1.7 | 58.8 |  |  |  |  |  |  | efflux ratio ([2]; Caco-2, pH 7.4): 0.8 |
| CC1(C)c2nc(-c3ccc(F)cc3)c(Nc3ccc(F)cc3)n2CCN1C(=O)CN [KAF156] | > 2000 µg/mL and > 4850 µM | 1600 µg/mL and 3880 µM | > 2000 µg/mL and > 4850 µM | 560 µg/mL and 1360 µM | 230 ± 17 | 47 ± 7.6 |  | 0.14 ± 0.006 |  |  |  |  |  |  | 400 to 500 | 40 |  |  |  |  |  |
| COc1cc(NC(C)CCCN)c2ncccc2c1 (stereo not shown) [Primaquine] |  |  |  |  |  |  |  |  |  |  |  |  | 34 ± 1.5 |  |  | 34 | nmi |  |  |  | FaSSGF solubility [1]: > 2000 µg/mL; FaSSIF solubility [1]: > 2000 µg/mL; FeSSIF solubility [1]: > 2000 µg/mL; solubility ([1]; 37 °C, fassgf or other biorelevant): > 2000 µg/mL and > 7700 µM; solubility ([1]; 37 °C, fassif): > 2000 µg/mL and > 7700 µM; solubility ([1]; 37 °C, fessif): > 2000 µg/mL and > 7700 µM; solubility ([1]; 37 °C, pH 7.4, aqueous buffer): > 7.7 mM; Solubility PBS7.4 (5–6 h) ([1]; pH 7.4): > 2000/> 7700 µg/mL; Papp A→B ([2]; Caco-2, pH 7.4): 29 ± 4.5 ×10⁻⁶ cm/s; fraction unbound at […] ([4]; microsomes, pH 7.4, 0.4 mg/mL protein): 0.56 ± 0.05; inhibition at 20 µM ([5]; human, microsomes, pH 7.4): 20%; inhibition at 20 µM ([6]; pH 7.4, CYP3A4 (midaz) % inhibition at max conc): 31% |
| Cc1cc(Nc2ccc(S(F)(F)(F)(F)F)cc2)n2nc(C(C)(F)F)nc2n1 [DSM265] |  |  |  | 2.04 µg/mL and 4.9 µM |  |  | 0.0018 ± 0.0001 |  |  |  |  |  | 49 ± 5.1 | 52.4 |  |  |  |  |  |  | fraction unbound at 6 h [3]: 0.002 |
| CC1(C)N=C(N)N=C(N)N1c1ccc(Cl)cc1 [Cycloguanil] | > 2000 µg/mL and > 7950 µM | > 2000 µg/mL and > 7950 µM | 533 µg/mL and 2120 µM | > 2000 µg/mL and > 7950 µM |  |  |  | 0.72 ± 0.083 | > 20 | nmi | > 20 |  | 0.77 ± 0.05 |  |  |  | nmi | > 20 | > 20 | nmi | CYP2C19 % inhibition at max conc [7]: nmi |
| [H]/N=C(\N/C(=N/[H])Nc1ccc(Cl)cc1)NC(C)C [Proguanil] | > 2000 µg/mL and > 7880 µM | > 2000 µg/mL and > 7880 µM | > 2000 µg/mL and > 7880 µM | > 2000 µg/mL and > 7880 µM |  |  |  | 0.33 ± 0.014 | > 20 | nmi |  | 24 | 7.9 ± 0.51 | < 5 | > 2000 | 27 |  | > 20 |  | nmi |  |
| CCCCN(CCCC)CC(O)c1cc(Cl)cc2c1-c1ccc(Cl)cc1/C2=C/c1ccc(Cl)cc1 (stereo not shown) [Lumefantrine] | 12.6 µg/mL and 23.8 µM | 0.063 µg/mL and 0.119 µM | 14.4 µg/mL and 27.2 µM | < 0.05 µg/mL and < 0.1 µM |  |  | < 0.0001 |  | > 20 | nmi | > 20 |  |  |  |  |  | nmi | > 20 | > 20 | nmi | fraction unbound at 6 h [3]: < 0.0001; CYP2C19 % inhibition at max conc [7]: nmi |
| CC(C)NC(=N)NC(=N)Nc1ccc(Cl)c(Cl)c1 [Chlorproguanil] | > 2000 µg/mL and > 6940 µM | 1100 µg/mL and 3810 µM | 1670 µg/mL and 5780 µM | 1420 µg/mL and 4930 µM | 61 ± 7.4 | 19 ± 3 |  | 0.052 ± 0.004 | > 20 | nmi | > 20 | 41 |  |  | > 2000 | 39 |  | > 20 | > 20 | nmi | efflux ratio ([2]; Caco-2): 3.2 |
| C[C@H]1[C@@H](O)O[C@@H]2O[C@@]3(C)CC[C@H]4[C@H](C)CC[C@@H]1[C@@]24OO3 [Dihydroartemisinin] | 140 µg/mL and 492 µM |  |  |  |  |  |  |  | > 20 | nmi | > 20 |  | 49 ± 1.2 | 50 ± 2.3 |  |  | nmi | > 20 | > 20 | nmi | fraction unbound at […] ([4]; liver microsomes, pH 7.4, instability evident, estimate only): 0.87 ± 0.1; CYP2C19 % inhibition at max conc [7]: nmi |
